# Patent US6903097B2 (dated 2005)
row,SMILES,melting point
1,O=C(NCc1ccc(Cl)cc1)c1cnc2ccc(C#CCO)cn2c1=O,179 to 181 °C
2,CN1c2ccc(C#CCO)cc2C(O)=C(C(=O)NCc2ccc(Cl)cc2)S1(=O)=O,167 to 168 °C
3,CN1N=C(C(=O)NCc2ccc(Cl)cc2)S(=O)(=O)c2cc(C#CCO)sc21,98 °C (dec.)
4,O=C(NCc1ccc(Cl)cc1)c1nn(-c2ccccc2)c2sc(CN3CCOCC3)cc2c1=O,182 to 184 °C
5,O=C(NCc1ccc(Cl)cc1)c1ccc2sc(CN3CCOCC3)cc2c1O,200 °C
6,O=C(NCc1ccc(Cl)cc1)c1coc2ccc(C#CCO)cc2c1=O,185 to 186 °C
7,O=C(NCc1ccc(Cl)cc1)c1noc2ccc(C#CCO)cc2c1=O,117 to 120 °C
8,Cn1nc(C(=O)NCc2ccc(Cl)cc2)c(=O)c2cc(C#CCO)cnc21,201 to 206 °C
